{"source": "patent US12076312B2", "about": "“Repurposing anti-androgen therapy for COVID-19 and immunotherapy” (Wisconsin Alumni Research Foundation, priority 2021, dated 2024)", "key": {"[1]": {"test_system": "AR responsive genes in A549 cells", "assay": "AR signaling gene panel qRT-PCR", "assay_type": "cell-based", "conditions": "A549, enzalutamide 5 μM, 24 h", "method": "(§1) From two independent biological experiments with 3 replicates (n=6), RNA samples were collected with TRIzol reagent (Invitrogen) and isolated using RNeasy Mini Kit (Qiagen). RNA concentrations were measured using A260 nm/A280 nm spectroscopy on the Nanodrop ND-1000 (Thermo-scientific). For each RNA sample, 1000 ng of RNA was reversed transcripted into first-strand cDNA using the High-Capacity RNA-to-cDNA Kit (Applied Biosystems).\n(§2) Changes in expression levels of AR signaling genes were screened using Bio-Rad's PrimePCR pathway 384-well panel: Androgen Receptor Signaling SAB target list (Cat #10047228) and Androgen Receptor Nuclear Signaling (Cat #10025068). […] Two independent biological replicates of mRNA samples were collected for each condition, and one reaction was run for each sample. If necessary, additional technical replicates were run to rule out any outlier. Relative mRNA expressions and p-values were calculated using the ΔΔCt method and two-sample t-test in Bio-Rad CFX Maestro program (version: 4.0.2325.0418). […] The stabilities of housekeeping genes were checked using the geNorm algorithm provided in CFX Maestro. M values of all housekeeping genes used in this study are less than 0.5, which is considered ideal. Log 2-transformed expression levels and −log 10 (p-value) of all treatment groups were plotted as Bubble and Color map graph in the Origin 2020 software."}, "[2]": {"test_system": "AR responsive genes in NCI-H2228 cells", "assay": "AR signaling gene panel qRT-PCR", "assay_type": "cell-based", "conditions": "NCI-H2228, enzalutamide 5 μM, 24 h (FIG. 2C)", "method": "as §1, §2"}, "[3]": {"test_system": "AR mRNA in NCI-H2228 lung cancer cells", "assay": "AR mRNA level by qRT-PCR", "assay_type": "cell-based", "method": "as §1\n(§3) Three independent biological replicates of mRNA samples were collected for each condition, and three technical replicates were run for each sample in qRT-PCR. The fold changes and p-values were calculated with the ΔΔCt method32 and two-sample t-test, respectively. Ubiquitin C (UBC) was used as the housekeeping gene for normalization."}, "[4]": {"test_system": "AR mRNA in A549 lung cancer cells", "assay": "AR mRNA level by qRT-PCR", "assay_type": "cell-based", "method": "as §1, §3"}, "[5]": {"test_system": "AR protein translocation in A549", "assay": "AR immunofluorescent imaging, nuclear translocation", "conditions": "A549, 1 nM R1881, 24 h", "quoted_text": "(§4) After incubating in blocking buffer (5% normal goat serum and 0.2% fish skin gelatin in 0.2% Tween/PBS) for 1 hour at room temperature, the cells were stained with primary antibodies overnight at 4° C. […] Immunofluorescence images were captured on Leica TCS WLL SP8 Laser scanning confocal microscopy (Leica Microsystems) using 63× oil immersion objective (Scale bar: 10 μm). Multiple images were taken at different fields of coverslip to obtain at least 100 cells for AR quantification. The sum of pixel intensities of AR signal within the nucleus and cytoplasm was quantified using a custom MATLAB program (R2017b, MathWorks). Briefly, the program utilized the actin and DRAQ5 channels to create masks for the cytoplasm and nucleus regions, respectively. These masks were then used to determine the AR signal within cytoplasm and nucleus, and the nucleus-to-cytoplasm ratio of AR signal was calculated by dividing the AR signal inside the nucleus by the AR signal within the entire cell (nucleus and cytoplasm)."}, "[6]": {"test_system": "AR protein translocation in H2228", "assay": "AR immunofluorescent imaging, nuclear translocation", "conditions": "H2228, 1 nM R1881, 24 h", "quoted_text": "as §4"}, "[7]": {"target": "mutant AR forms (F877L mutation) (Homo sapiens, UniProt P10275, F877L)", "sequence (P10275 whole entry F877L)": "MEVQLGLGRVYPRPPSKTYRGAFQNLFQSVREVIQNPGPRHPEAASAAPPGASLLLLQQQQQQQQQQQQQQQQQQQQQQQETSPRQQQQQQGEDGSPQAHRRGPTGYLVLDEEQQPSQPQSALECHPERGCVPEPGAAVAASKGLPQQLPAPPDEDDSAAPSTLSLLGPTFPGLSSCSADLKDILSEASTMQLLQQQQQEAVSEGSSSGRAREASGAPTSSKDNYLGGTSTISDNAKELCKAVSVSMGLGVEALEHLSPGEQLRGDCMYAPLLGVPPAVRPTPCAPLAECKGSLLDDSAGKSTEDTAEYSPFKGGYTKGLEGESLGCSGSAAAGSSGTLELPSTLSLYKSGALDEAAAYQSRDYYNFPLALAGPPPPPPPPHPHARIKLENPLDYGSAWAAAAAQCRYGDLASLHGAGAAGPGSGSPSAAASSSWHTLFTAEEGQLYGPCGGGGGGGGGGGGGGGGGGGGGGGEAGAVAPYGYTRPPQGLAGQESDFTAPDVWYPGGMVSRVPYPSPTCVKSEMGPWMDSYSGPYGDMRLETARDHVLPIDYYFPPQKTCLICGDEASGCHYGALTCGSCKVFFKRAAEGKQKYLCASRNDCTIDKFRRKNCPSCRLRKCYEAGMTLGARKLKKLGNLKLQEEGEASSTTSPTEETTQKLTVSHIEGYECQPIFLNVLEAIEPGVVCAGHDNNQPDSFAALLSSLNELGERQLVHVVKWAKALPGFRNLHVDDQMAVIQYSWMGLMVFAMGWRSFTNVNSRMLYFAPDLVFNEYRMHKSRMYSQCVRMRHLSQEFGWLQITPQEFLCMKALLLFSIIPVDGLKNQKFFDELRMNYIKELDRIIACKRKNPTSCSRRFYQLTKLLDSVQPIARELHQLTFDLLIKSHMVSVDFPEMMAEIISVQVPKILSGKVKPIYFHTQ", "conditions": "F877L mutation that confers resistance to enzalutamide; cited from earlier work"}, "AR": {"target": "AR (Homo sapiens, UniProt P10275)", "sequence (P10275 whole entry)": "as the sequence (P10275 whole entry F877L) above, with L877F counted along it", "conditions": "cited from earlier work"}}, "data": [{"molecule": "CNC(=O)c1ccc(N2C(=S)N(c3ccc(C#N)c(C(F)(F)F)c3)C(=O)C2(C)C)cc1F", "note": "[enzalutamide]", "values": [{"measurement": "FOS expression log 2FC", "setting": "[1]; p-value=0.008", "value": "−1.627", "unit": "log 2FC"}, {"measurement": "IL6 expression log 2FC", "setting": "[1]; p-value=0.023", "value": "−2.41", "unit": "log 2FC"}, {"measurement": "MAF expression log 2FC", "setting": "[1]; p-value=0.035", "value": 2.44, "unit": "log 2FC"}, {"measurement": "IL6 expression", "setting": "[2]", "value": "significantly upregulated"}, {"measurement": "AR expression", "setting": "[3]; H2228, enzalutamide without ligand stimulation", "value": "increased AR expression"}, {"measurement": "AR expression", "setting": "[4]; A549, enzalutamide without ligand stimulation", "value": "increased AR expression"}, {"measurement": "R1881-induced downregulation of AR expression", "setting": "[4]; male A549, pre-treatment with enzalutamide 30 min before 1 nM R1881", "value": "blocked"}]}, {"molecule": "C[C@]1(O)CC[C@H]2[C@@H]3CCC4=CC(=O)CCC4=C3C=C[C@@]21C", "note": "[R1881, Metribolone]", "values": [{"measurement": "AR transport to the nucleus", "setting": "[5]", "value": "efficiently transported to the nucleus"}, {"measurement": "AR expression", "setting": "[3]; female H2228, androgen (R1881) stimulation", "value": "minimal changes"}, {"measurement": "AR mRNA level", "setting": "[4]; male A549, R1881 1 nM, 2, 4, 8 and 24 h vs control", "value": "temporally downregulated"}, {"measurement": "AR transport to the nucleus", "setting": "[6]", "value": "efficiently transported to the nucleus"}]}, {"molecule": "CC(O)c1cc(C(=O)N[C@@H](C)Cn2ccc(-c3ccc(C#N)c(Cl)c3)n2)[nH]n1", "note": "(stereo partly shown) [Darolutamide]", "values": [{"measurement": "activity against mutant AR forms", "setting": "[7]", "value": "Remains antagonistic"}, {"measurement": "greater affinity for AR compared with enzalutamide", "setting": "AR", "value": 8, "unit": "fold"}]}]}
